US20240024317A1, “CANCER TREATMENT USING BOSENTAN IN COMBINATION WITH A CHECKPOINT INHIBITOR” (Materia Therapeutics Inc., priority 2020, published 2024)

How the values were obtained:
4T1 tumors = experiment: Ultrasound shear wave elastography of tissue stiffness, bosentan dose response; assay type: in vivo, mice; conditions: 1 mg/kg daily bosentan i.p.; 4T1 breast tumors
Experimental: (§1) Mice bearing syngeneic, orthotopic triple negative breast cancer (TNBC) were treated with a range of sub-therapeutic doses of bosentan, from 0.2 mg/kg to 10 mg/kg of body weight. Orthotopic models for murine mammary tumors were generated by implantation of 5×10^4 4T1 or E0771 cancer cells in 40 μl of serum-free medium into the third mammary fat pad of 6-8-week-old BALB/c and C57BL/6 female mice, respectively. 4T1 (ATCC® CRL-2539TH) and E0771 (94A001, CH3 BioSystems) mouse breast adenocarcinoma cell lines were purchased form ATCC and CH3 BioSystems, respectively. The cells were maintained at 37° C./5% CO2 in Roswell Park Memorial Institute medium (RPMI-1640, LM-R1637, Biosera) supplemented with 10% fetal bovine serum (FBS, FB-1001H, biosera) and 1% antibiotics (A5955, Sigma). Bosentan (bosentan Hydrate (S3051, Selleckchem) was dissolved in ddH2O containing 2% DMSO (GK2245, Glentham Life Science), 30% PEG300 (S6704, Selleckchem) and 2% Tween 80 (S6702, Selleckchem)) 1 mg/kg, 5 mg/kg, 10 mg/kg or equal volume of diluent (control group) was administered by intraperitoneal injection (i.p.) once a day for 10 days, starting from once the tumor volumes reached an average size of 100 mm^3. Tumors were excised when they reached an average size of 500 mm^3. Tissue stiffness was then measured non-invasively and longitudinally using ultrasound elastography. […]

E0771 tumors = experiment: as above; assay type: in vivo, mice; conditions: 1 mg/kg daily bosentan i.p.; E0771 breast tumors
Experimental: as §1

4T1 or E0771 tumors = experiment: Tumor growth under bosentan monotherapy (dose response studies); assay type: in vivo, mice; conditions: bosentan monotherapy at any dose
Experimental: as §1

[1] = Mouse body weight under bosentan monotherapy; assay type: in vivo, mice; conditions: bosentan monotherapy at any dose
Experimental: as §1

E0771 cancer cells = experiment: Rechallenge of surviving mice with a second tumor cell inoculation; assay type: in vivo
Experimental: To determine if a stiffness-reducing and hypoxia-reducing (blood flow-increasing) regimen of bosentan could enhance the efficacy of an ICB cocktail of anti-PD-1 (mouse monoclonal anti-PD-1 CD279, clone RMP1-14, BioXCell) and anti-CTLA-4 (mouse monoclonal anti-CTLA-4 CD152, clone 9D9, BioXCell) antibodies, mice bearing primary tumors in a neo-adjuvant setting were administered various treatments. Therapy was administered before removing the primary tumors surgically to assess mice survival against spontaneous metastases that arose on treatment. For the combinatorial treatment with bosentan and Immunotherapy studies, bosentan 1 mg/kg or equal volume of diluent (control group) was administered by intraperitoneal injection (i.p.) once a day for 14 days, starting from once the tumor volumes reached an average size of 5 mm diameter. Immunotherapy was administrated as a cocktail of 10 mg/kg anti-PD-1 (CD279, clone RMP1-14, BioXCell) and 5 mg/kg anti-CTLA-4 (CD152, clone 9D9) following dilution in the recommended InVivoPure pH 7.0 Dilution Buffer (BioXCell). […] Planar dimensions (x, y) of tumor were monitored every 2-3 days using a digital caliper and tumor volume was estimated from the volume of an ellipsoid and assuming that the third dimension, z, is equal to x y. […]

Which “tissue stiffness (ultrasound elastography)” value (4T1 tumors) does the source give for COc1ccccc1Oc1c(NS(=O)(=O)c2ccc(C(C)(C)C)cc2)nc(-c2ncccn2)nc1OCCO [bosentan, 4-tert-butyl-N-[6-(2-hydroxy-ethoxy)-5-(2-methoxy-phenoxy)-2-(pyrimidin-2-yl)pyrimidin-4-yl] benzenesulfonamide] here?
The value was “reduced tissue stiffness”.

What about the “tissue stiffness (ultrasound elastography)” value (E0771 tumors) of the same molecule?
Its value is “reduced tissue stiffness”.

What about the tumor growth (4T1 or E0771 tumors) of the same molecule?
The tumor growth was “did not affect”.

What about the mouse body weight [1] of the same molecule?
Its mouse body weight is “did not affect”.

What about the “mice with tumors appearing after rechallenge” value (E0771 cancer cells; five surviving mice (bosentan plus ICB) rechallenged) of the same molecule?
Its value is “two out of the five”.

And the “tumor growth rate after rechallenge” value (E0771 cancer cells; five surviving mice (bosentan plus ICB) versus healthy age-matched control mice)?
Its value is “grew much slower”.
